Series [1] deals with rat model of hyperlipidemia induced by high cholesterol diet. The experiment in a line: Rat model of hyperlipidemia induced by high cholesterol diet (serum TG, NEFA). The note with it: for Serum TG / Serum NEFA: mean ± SD, n=6. The format is in vivo, Sprague-Dawley rats. The text has this: On the day before the start of the administration (Day 0), the animals were divided into 7 groups based on body weights and serum indicators and were continually fed with the high-cholesterol diet. The treatment groups were orally dosed with either compound or vehicle while continuing the high-cholesterol diet for a total of 1 week. The animals were weighed daily before the treatment, and the compounds were given at 9:00-9:30 in the morning based on the body weight of the day.

Series [2] can be described thus: 7-day repeated oral gavage, body weights of ICR mice. The format is in vivo. To be noted: for Weight Gain compared with Day 0: n=10. The text has this: After 3 days of acclimatization, ICR mice were grouped according to their body weights. The day of grouping is designated as Day 0. […] The animals were weighed and recorded daily.
Series [3] relates to db/db type 2 diabetes model. The experiment in a line: Pharmacodynamics study on the db/db type 2 diabetes model. To be noted: for Statistical difference (p) of the blood glucose level between treatment group and vehicle group: random blood glucose.
Text: 45 db/db mice were evenly divided into 5 groups before the initiation of treatment based on the body weights, serum triglyceride (TG) levels, and random blood glucose levels.
All animals were weighed daily before each dosing and treated daily for 14 consecutive days.
All the data was imported into an Excel file and presented as Mean±SEM. Graphpad Prism 7.0 software was used for data statistical analysis by One-way or Two-way ANOVA, with P<0.05 as the criterion of significant differences.
The subject of series [4] is uninephrectomied db/db mice. Put plainly: Diabetic nephropathy pharmacodynamic model (uninephrectomied db/db mice). The note with it: Compound 2 treatment, oral once per day.
Experimental: Housing temperature was maintained at 22-26° C. and humidity at 40%-60%. Mice were allowed to access food and water ad libitum. […] Buprenorphine was applied after surgery.
Two weeks after surgery, db/db mice were randomly assigned into 5 groups. Wild type mice were used for the control animals. […] Compounds were orally administrated once per day for 10 weeks.
At the 5th and 9th week after compound administration, mice were placed in metabolic cages for urine collection. Albumin level was measured for 24 hr albumin excretion calculation. At the 10th week after treatment, the animals were sacrificed for kidney dissection. The kidney was fixed in 10% neutral buffed formalin, then paraffin-embedded for histopathological analysis. Glomerulosclerosis was assessed by evaluating glomerular basement membrane, mesangial expansion, nodular sclerosis and glomerulosclerosis.
Graphpad 8.0 software was used for statistical analysis. The difference between the values were analyzed with one-way ANOVA. The difference between histopathological score was analyzed with Kruskal-Wallis nonparameter test.
The mark [5] stands for this setting: 1 mg/kg (Aleglitazar: Day 6; Compound 2: Day 4 and 5; Compounds 4 and 10: Day 4 to Day 7).
Where [6] appears, read: Day 0 (day before treatment), group later dosed 0.2 mg/kg oral QD x 7 days.
Where [7] appears, read: Day 0 (day before treatment), group later dosed 0.6 mg/kg oral QD x 7 days.
Where [8] appears, read: Day 8, 0.2 mg/kg oral QD x 7 days.
[9] abbreviates: Day 8, 0.6 mg/kg oral QD x 7 days.

For `CO[C@@H](Cc1ccc(OCCc2nc(-c3ccccc3)oc2C)c2ccsc12)C(=O)O` (single isomer, unassigned) [Compound 4], in series [1] (0.2 mg/kg, T-test, P<0.05), the “Serum NEFA compared with Aleglitazar” value is recorded as “significantly reduce”. Moreover, the “Serum TG and NEFA levels compared with the vehicle group” value in series [1] (Day 8, both 0.2 mg/kg and 0.6 mg/kg) is on record as “significantly reduce”.
As for `[2H]c1cccc([2H])c1-c1nc(CC([2H])([2H])Oc2ccc(C[C@H](OC)C(=O)O)c3sccc23)c(C)o1` (single isomer, unassigned) [Compound 10], the “Daily average weight gain compared with the vehicle group” value in series [2] (setting [5]) was “significantly higher”. Also, the “Weight Gain compared with Day 0” value in series [2] (Day 1, 1 mg/kg oral QD) is reported as 0.34 ± 0.17 g; in series [2] (Day 2, 1 mg/kg oral QD), 1.63 ± 0.41 g; in series [2] (Day 3, 1 mg/kg oral QD) it was 2.96 ± 0.37 g; in series [2] (Day 4, 1 mg/kg oral QD), 3.85 ± 0.38 g; in series [2] (Day 5, 1 mg/kg oral QD), 4.59 ± 0.39 g; in series [2] (Day 6, 1 mg/kg oral QD), 5.75 ± 0.39 g. In addition, the “Weight Gain compared with Day 0” value in series [2] (Day 7, 1 mg/kg oral QD) is on record as 6.11 ± 0.53 g.
With `[2H]c1c([2H])c([2H])c(-c2nc(CCOc3ccc(C[C@H](OC)C(=O)O)c4sccc34)c(C)o2)c([2H])c1[2H]` (single isomer, unassigned) [Compound 4], the “Daily average weight gain compared with the vehicle group” value in series [2] (setting [5]) is “significantly higher”. Moreover, the “Weight Gain compared with Day 0” value in series [2] (Day 1, 1 mg/kg oral QD) was 0.35 ± 0.24 g; in series [2] (Day 2, 1 mg/kg oral QD), 1.45 ± 0.34 g; in series [2] (Day 3, 1 mg/kg oral QD), 2.75 ± 0.41 g; in series [2] (Day 4, 1 mg/kg oral QD), 3.71 ± 0.46 g; in series [2] (Day 5, 1 mg/kg oral QD), 4.26 ± 0.47 g; in series [2] (Day 6, 1 mg/kg oral QD), 5.36 ± 0.54 g. Further, the “Weight Gain compared with Day 0” value in series [2] (Day 7, 1 mg/kg oral QD) worked out at 5.91 ± 0.56 g. Moreover, the “Serum TG” value turned out to be 4.22 ± 1.71 mmol/L in series [1] (setting [6]), 4.00 ± 1.71 mmol/L in series [1] (setting [7]), 2.46 ± 1.18 mmol/L in series [1] (setting [8]) and 1.93 ± 0.58 mmol/L in series [1] (setting [9]). For the same molecule, the results for the “Serum NEFA” value in series [1] (setting [8]) and in series [1] (setting [9]) were 490.33 ± 113.61 µmol/L and 347.83 ± 113.61 µmol/L, respectively.
`[2H]C([2H])(Cc1nc(-c2ccccc2)oc1C)Oc1ccc(C[C@H](OC)C(=O)O)c2sccc12` (single isomer, unassigned) [Compound 2]: in series [3] (Day 10 to Day 15, Aleglitazar 0.2 mg/kg, Compound 2 0.05, 0.2, 1 mg/kg), the “Average daily body weights compared with the vehicle group” value was “significantly higher”. Also, the “Statistical difference (p) of the blood glucose level between OGTT treatment group and vehicle group” value in series [3] (OGTT Day 14, 0 min, 0.05 mpk) is listed as “p > 0.05”; in series [3] (OGTT Day 14, 0 min, 0.2 mpk), “p < 0.01”; in series [3] (OGTT Day 14, 0 min, 1 mpk), “p < 0.0001”; in series [3] (OGTT Day 14, 15 min, 0.05 mpk) it was “p > 0.05”; in series [3] (OGTT Day 14, 15 min, 0.2 mpk), “p > 0.05”; in series [3] (OGTT Day 14, 15 min, 1 mpk), “p < 0.0001”. The “Statistical difference (p) of the blood glucose level between OGTT treatment group and vehicle group” value in series [3] (OGTT Day 14, 30 min, 0.05 mpk) is “p > 0.05”; in series [3] (OGTT Day 14, 30 min, 0.2 mpk), “p > 0.05”; in series [3] (OGTT Day 14, 30 min, 1 mpk), “p < 0.05”; in series [3] (OGTT Day 14, 60 min, 0.05 mpk), “p > 0.05”; in series [3] (OGTT Day 14, 60 min, 0.2 mpk), “p < 0.01”; in series [3] (OGTT Day 14, 60 min, 1 mpk), “p < 0.0001”. For the same molecule, the “Statistical difference (p) of the blood glucose level between OGTT treatment group and vehicle group” value in series [3] (OGTT Day 14, 120 min, 0.05 mpk) is “p > 0.05”; in series [3] (OGTT Day 14, 120 min, 0.2 mpk), “p < 0.05”; in series [3] (OGTT Day 14, 120 min, 1 mpk), “p < 0.001”. Further, the “Statistical difference (p) of the blood glucose level between treatment group and vehicle group” value was “p > 0.05” in series [3] (Day 0, 0.05 mpk); “p > 0.05” in series [3] (Day 0, 0.2 mpk); “p > 0.05” in series [3] (Day 0, 1 mpk); “p > 0.05” in series [3] (Day 7, 0.05 mpk); “p > 0.05” in series [3] (Day 7, 0.2 mpk); “p < 0.05” in series [3] (Day 7, 1 mpk). The “Statistical difference (p) of the blood glucose level between treatment group and vehicle group” value was “p > 0.05” in series [3] (Day 14, 0.05 mpk); “p < 0.05” in series [3] (Day 14, 0.2 mpk); “p < 0.0001” in series [3] (Day 14, 1 mpk). Besides, the “Daily average weight gain compared with the vehicle group” value was “no significant difference” in series [2] (0.2 mg/kg (Aleglitazar: Day 4 and Day 5; Compound 2: throughout the study)); “significantly higher” in series [2] (setting [5]). For the same molecule, the “Weight Gain compared with Day 0” value in series [2] (Day 1, 0.2 mg/kg oral QD) is on record as 0.45 ± 0.28 g; in series [2] (Day 1, 1 mg/kg oral QD), 0.4 ± 0.17 g; in series [2] (Day 2, 0.2 mg/kg oral QD) it was 1.42 ± 0.22 g; in series [2] (Day 2, 1 mg/kg oral QD) it was 1.57 ± 0.26 g; in series [2] (Day 3, 0.2 mg/kg oral QD), 2.56 ± 0.23 g; in series [2] (Day 3, 1 mg/kg oral QD), 2.71 ± 0.19 g. Besides, the “Weight Gain compared with Day 0” value in series [2] (Day 4, 0.2 mg/kg oral QD) is recorded as 2.96 ± 0.23 g; in series [2] (Day 4, 1 mg/kg oral QD) it was 3.61 ± 0.19 g; in series [2] (Day 5, 0.2 mg/kg oral QD) it was 3.73 ± 0.34 g; in series [2] (Day 5, 1 mg/kg oral QD) it was 3.96 ± 0.29 g; in series [2] (Day 6, 0.2 mg/kg oral QD), 4.66 ± 0.39 g; in series [2] (Day 6, 1 mg/kg oral QD), 4.84 ± 0.4 g. Also, the “Weight Gain compared with Day 0” value in series [2] (Day 7, 0.2 mg/kg oral QD) is listed as 5.08 ± 0.42 g; in series [2] (Day 7, 1 mg/kg oral QD), 5.44 ± 0.36 g. The “Reduction of urine albumin” value in series [4] is listed as “More than 50%”. In addition, the “Serum TG” value in series [1] (setting [6]) is 4.27 ± 1.61 mmol/L; in series [1] (setting [7]) it was 4.11 ± 1.10 mmol/L; in series [1] (setting [8]) it was 1.71 ± 0.72 mmol/L; in series [1] (setting [9]) it was 1.86 ± 0.99 mmol/L. Besides, the “Serum NEFA” value was 431.50 ± 151.63 µmol/L in series [1] (setting [8]) and 444.33 ± 119.12 µmol/L in series [1] (setting [9]).

The record behind these values is patent US20240270731A1, “[…]” (ALEBUND PHARMACEUTICALS (HONG KONG) LIMITED, priority 2021, published 2024).
